pIC50: −log10 of the molar value. Each block holds one compound with its values, some of them ahead of it.
What was measured:
[1] = system: VCaP cells; assay: Cell growth inhibition, VCaP; type: cell-based; details: for inhibition of cell growth: VCaP cells in culture, 1 μM and 10 μM
Method: (§1) 48 hours following plating of cells, the appropriate test compound is added to each well of the tissue culture dish at a predetermined concentration. The medium was replenished every 24 hours with fresh growth medium containing the same concentration of the same test compound for indicated period of the cell growth inhibition assay. Percent cell growth inhibition was calculated using a hemocytometer for estimating cell density in each of the test wells of the tissue culture dish and trypan blue dye exclusion microscopy and photography to estimate the fraction of viable cells in each test well.
(§2) The protein inhibition studies described above indicate that ERGi-USU is a selective inhibitor of ERG expression. To investigate whether ERGi-USU selectively arrested the growth of ERG positive cancer cells without arresting the growth of ERG negative cancer cells, a cell growth inhibition study was carried out using the following cancer and normal cell lines: ERG positive cancer cells (VCaP, COLO320, MOLT-4 and KG-1) cancer cells, ERG negative cancer cells (LNCaP, MDA PCa2b and LAPC4) cancer cells, normal prostate RWPE-1 and BPH-1 cells and normal endothelial HUVEC cells. Each cell line was cultured to achieve cells in logarithmic growth and these cells were then plated in 10 cm wells of a tissue culture dishes at a cell density of 2×10^6 cells per well. The plated cells were contacted with 0, 0.1, 0.5, 1.0, 5.0, and 10 μM concentrations of ERGi-USU for a period of 2, 4, 6 and 8 days. At the end of each time period, cells are recovered from the test plate, washed and the cell density and viability determined using a hemocytometer and trypan blue dye staining method. Cell growth inhibition was expressed as a graph correlating cell number to the concentration of ERGi-USU.
(§3) FIG. 4 illustrates the results of cell growth inhibition studies that were used to calculate the concentration of ERGi-USU needed for inhibiting 50% of the growth (IC50) of the cells mentioned above. As illustrated by this figure, ERGi-USU was a potent inhibitor of the growth of ERG positive cancer cells in culture.

[2] = system: LNCaP cells; assay: Cell growth inhibition, LNCaP; type: cell-based; details: for inhibition of cell growth: ERG negative LNCaP cells, 1 μM and 10 μM
Method: as §1, §2, §3

[3] = system: LAPC4 cells; assay: Cell growth inhibition, LAPC4; type: cell-based; details: Homo sapiens; LAPC4, ERG negative metastatic prostate cancer; read-out: Cell growth inhibition (ERGi-USU: IC50)
Method: as §1
(§4) The protein inhibition studies described above indicate that ERGi-USU is a selective inhibitor of ERG expression. […] At the end of each time period, cells are recovered from the test plate, washed and the cell density and viability determined using a hemocytometer and trypan blue dye staining method. Cell growth inhibition was expressed as a graph correlating cell number to the concentration of ERGi-USU. […]

[4] = system: VCaP xenograft tumors; assay: VCaP xenograft tumor growth inhibition in nude mice; type: in vivo; details: male nude mice, 150 mg/kg intraperitoneally 3 times per week, versus vehicle control and 100 mg/kg
Method: Male athymic nude mice 6-8 weeks old and weighing 27 to 30 g were purchased from Charles River Laboratories. ERG harboring prostate cancer cells (VCaP) were trypsinized and washed twice with ice-cold PBS, and resuspended in ice-cold 50% matrigel in serum-free DMEM medium. A total of 4×10^6 cells/0.1 ml/mouse were subcutaneously injected into lower right dorsal flank of the mice. Prior to injection, mice were anesthetized with inhalation anesthesia (isoflurane). Tumor growth was monitored weekly after injection. Three weeks later when tumors were palpable mice were randomly separated into 2 experimental groups and one control group of 7 mice in each group. In the treatment groups mice were injected intraperitoneally (I.P) with 100 mg/kg of ERGi-USU or 150 mg/kg of ERGi-USU while the control group were injected with vehicle (1:1 [v/v], DMSO/PEG300) only. Growth in tumor volume was recorded weekly by digital caliper measurements and tumor volumes calculated using the ½ (L×W^2) formula, where L=length of tumor and W=width. Tumor volumes were compared between treated and control groups with repeated measurements and statistical significance of the results between the groups computed using students t-test and p values calculated.
Male nude mice were injected with about 4×10^6 VCaP cells and tumor growth was monitored. […] Tumor growth was monitored weekly.

[5] = system: MDA PCa2b cells; assay: Cell growth inhibition, MDA PCa2b; type: cell-based; details: MDA-PCa-2b, ERG negative prostate cancer, read-out: Cell growth inhibition (ERGi-USU: IC50)
Method: as §1, §4

[6] = system: KG-1 cells; assay: Cell growth inhibition, KG-1; type: cell-based; details: Homo sapiens; KG-1, ERG positive myeloid leukemia; read-out: Cell growth inhibition (ERGi-USU: IC50)
Method: as §1, §4

[7] = system: HUVEC cells; assay: Cell growth inhibition, HUVEC; type: cell-based; details: Homo sapiens, ERG positive normal endothelial, read-out: Cell growth inhibition (ERGi-USU: IC50)
Method: as §1, §4

[8] = system: PSA; assay: Western blot analysis of PSA expression in prostate cancer cells; type: cell-based; details: 0.1-10 μM
Method: (§5) Cultured cells were treated at specific dosages with each of the test ERG inhibitors. Following incubation of the treated cells for indicated time period, cells were lysed using Mammalian Protein Extraction Reagent (M-PER; Pierce, Rockford, Ill.) containing a protease inhibitor cocktail and phosphatase inhibitor cocktails I & III (Sigma, St Louis, Mo.). Cell lysates containing 50 μg of total protein were electrophoresed through 4-12% Bis-Tris Gel (Invitrogen, Carlsbad, Calif.) and the cellular proteins were transferred to PVDF membrane (Invitrogen, Carlsbad, Calif.). Membranes were incubated at 4° C. for 12 hours with primary antibodies for AR, PSA, GAPDH, α-Tubulin, apoptosis markers and cell cycle regulators. Following exposure to primary antibodies, the membranes were washed with buffer (three times, 5 minutes each at room temperature) followed by incubation with relevant secondary antibodies for 1 hour at 24° C. Finally, the membranes were washed with buffer and developed using the ECL Western blot detection reagent (GE Health Care, Buckinghamshire, UK).
(§6) Briefly, ERG positive VCaP cells and ERG negative LNCaP, MDA PCa2b and LAPC4 cells in logarithmic growth were plated in 10 cm tissue culture dish at a cell density of 2×10^6 cells per dish. The plated cells were contacted with 0, 0.1, 0.5, 1.0, 5.0, and 10 μM concentrations of ERGi-USU for a period of 48 hours. Cells from each dish were then processed for Western blot analysis and alterations in the expression of ERG protein were monitored.

[9] = system: AR; assay: Western blot analysis of AR expression in prostate cancer cells; type: cell-based; details: 0.1-10 μM
Method: as §5, §6

[10] = system: RWPE-1 cells; assay: Cell growth inhibition, RWPE-1; type: cell-based; details: Homo sapiens; RWPE-1, normal prostate; read-out: Cell growth inhibition (ERGi-USU: IC50)
Method: as §1, §4

[11] = system: BPH-1 cells; assay: Cell growth inhibition, BPH-1; type: cell-based; details: Homo sapiens; BPH-1, normal prostate; read-out: Cell growth inhibition (ERGi-USU: IC50)
Method: as §1, §4

[12] = system: COLO320 cells; assay: Cell growth inhibition, COLO320; type: cell-based; details: Homo sapiens, COLO 320; COLO320, ERG positive colon adenocarcinoma; read-out: Cell growth inhibition (ERGi-USU: IC50)
Method: as §1, §4

[13] = system: ERG mRNA; assay: Quantitative RT-PCR analysis of ERG transcripts in VCaP cells; type: cell-based, human; details: 1 μM, 24 hours
Method: The ERG inhibitors identified by the primary screen were used in a quantitative RT-PCR assay to evaluate their ability to inhibit ERG mRNA expression. Briefly, VCaP cells were treated at a concentration of 1 μM with each of the ten compounds for 24 hours. Following incubation with the test compounds the cells are lysed and the total RNA isolated. 200 ng of the total RNA was used for analysis of ERG transcripts by qRT-PCR using a pair of ERG primers specific for the coding sequence of tERG for analysis.

[14] = target: T1, ERG protein (Homo sapiens, UniProt P11308); assay: In-cell Western primary screen for inhibitors of ERG expression in VCaP cells; type: cell-based; details: single 1 μM dose, 48 hours, duplicate screen
T1 construct: contacting a TMPRSS2-ERG fusion positive prostate cancer (VCaP) cell line with a fixed concentration of each compound; host or cells: VCaP
T1 sequence (P11308 33-479 limits assumed): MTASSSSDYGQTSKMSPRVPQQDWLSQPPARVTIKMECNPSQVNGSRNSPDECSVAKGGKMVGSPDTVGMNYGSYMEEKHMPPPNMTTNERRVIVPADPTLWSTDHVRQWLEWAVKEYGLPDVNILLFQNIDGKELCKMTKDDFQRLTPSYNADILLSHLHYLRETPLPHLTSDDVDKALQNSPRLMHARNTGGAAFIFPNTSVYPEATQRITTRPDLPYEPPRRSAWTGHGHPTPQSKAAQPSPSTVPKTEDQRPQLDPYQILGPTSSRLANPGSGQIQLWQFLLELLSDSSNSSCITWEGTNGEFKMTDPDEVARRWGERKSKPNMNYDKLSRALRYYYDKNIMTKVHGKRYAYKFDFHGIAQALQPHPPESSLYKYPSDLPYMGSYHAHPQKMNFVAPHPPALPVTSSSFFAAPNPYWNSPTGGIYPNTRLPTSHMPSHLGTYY
Source text: To identify ERG specific small molecule inhibitors, the present inventors screened a library of small molecule compounds, by contacting a TMPRSS2-ERG fusion positive prostate cancer (VCaP) cell line with a fixed concentration of each compound in the small molecule library. ERG protein expression was monitored using an In-cell Western blot assay (LI-COR Biosciences, Lincoln, Nebr.), using a highly specific ERG monoclonal antibody (CPDR ERG-mAb; 9FY) for detection. See Furusato et al., Prostate Cancer Prostatic Dis., 13:228-372 (2010); Mohamed et al., J. Cancer, 1:197-208, (2010); Miettinen et al., Am. J. Surg Pathol., 35:432-41 (2011); and U.S. patent publication No. 2012/0135018A1.
The TMPRSS2-ERG fusion positive prostate cancer cell line, VCaP (ATCC), was used to identify small molecule inhibitors of ERG expression. […] The inhibition of ERG expression was evaluated by an In-cell Western blot assay (LI-COR Biosciences, Lincoln, Nebr.) using the ERG specific CPDR ERG-MAb as further described below. […]
Inhibition of ERG expression by the test compounds was determined by an In-cell Western assay (LI-COR Biosciences, Lincoln, Nebr.). […]
The tissue culture plates were imaged on a Li-Cor Odyssey Infrared Imaging System and infrared signals were measured to provide values for ERG expression and cell number via DNA staining. […]

[15] = system: MOLT-4 cells; assay: Cell growth inhibition, MOLT-4; type: cell-based; details: Homo sapiens; MOLT-4, ERG positive acute lymphoblastic leukemia; read-out: Cell growth inhibition (ERGi-USU: IC50)
Method: as §1, §4

[16] = AR positive/ERG negative LNCaP, MDA PCa2b and LAPC4 cells, 48 hours

Structure (SMILES): Oc1ccc2ccccc2c1/N=N/c1ccccn1 [ED-1]
- inhibition of cell growth [1]: inhibited the growth of VCaP prostate cancer cells
- inhibition of cell growth [2]: no measurable inhibitory effect

Structure (SMILES): Nc1c(O)ccc2ccccc12 [ED-2]
- inhibition of cell growth [1]: inhibited the growth of VCaP prostate cancer cells
- inhibition of cell growth [2]: no measurable inhibitory effect

Structure (SMILES): NC(c1ccccc1)c1c(O)ccc2ccccc12 (stereo not drawn) [ED-3]
- inhibition of cell growth [1]: inhibited the growth of VCaP prostate cancer cells
- inhibition of cell growth [2]: no measurable inhibitory effect

- pIC50 ([1]; Homo sapiens, VCaP, ERG positive metastatic prostate cancer, read-out: Cell growth inhibition (ERGi-USU: IC50)): 6.52
- pIC50 ([2]; Homo sapiens, LNCaP, ERG negative metastatic prostate cancer, read-out: Cell growth inhibition (ERGi-USU: IC50)): < 5.00
- pIC50 [12]: 6.52
- inhibition of ERG mRNA expression (qRT-PCR) [13]: inhibitors of ERG-mRNA expression
- inhibition of ERG protein expression (In-cell Western, normalized by cell number) [14]: inhibitors of ERG protein expression
- pIC50 [15]: 7.30
Structure (SMILES): Oc1ccc2ccccc2c1/N=N/c1nccs1 [ERGi-USU, 1-(thiazol-2-yldiazenyl)naphthalene-2-ol]
- pIC50 [3]: < 5.00
- tumor volume [4]: exhibited the smallest volumes
- pIC50 [5]: < 5.00
- pIC50 [6]: 6.70
- pIC50 [7]: < 5.00
- inhibition of PSA protein expression [8, 16]: does not inhibit
- inhibition of PSA protein expression ([8]; VCaP cells): inhibits expression of PSA, and AR proteins
- inhibition of AR protein expression [9, 16]: does not inhibit
- inhibition of AR protein expression ([9]; VCaP cells): inhibits expression of PSA, and AR proteins
- pIC50 [10]: < 5.00
- pIC50 [11]: < 5.00

- inhibition of ERG mRNA expression (qRT-PCR) [13]: inhibitors of ERG-mRNA expression
Structure (SMILES): Cc1[nH]ccc2c1[nH]c1cc(=O)ccc12 [NSC72292]

- inhibition of ERG mRNA expression (qRT-PCR) [13]: inhibitors of ERG-mRNA expression
Structure (SMILES): Oc1ccc2ccccc2c1/N=N/c1nccs1 [NSC99629, reference compound]
- inhibition of PSA protein expression ([8]; VCaP cells): No appreciable inhibition
- inhibition of AR protein expression ([9]; VCaP cells): No appreciable inhibition

Source: patent publication US9782394B2, “Inhibitors for ERG oncogene positive cancers” (The Henry M. Jackson Foundation for the Advancement of …, priority 2014, dated 2017)
